The text below walks through data of ChEMBL document CHEMBL3046336, “Assessment of the impact of insecticides on Anagrus nilaparvatae (Pang et Wang) (Hymenoptera: Mymanidae), an egg parasitoid of the rice planthopper, Nilaparvata lugens (Hemiptera: Delphacidae)” (Crop Prot, 2008).

Molecules are shown by their SMILES.

A short description of series [1]: Acute contact toxicity against adult Anagrus nilaparvatae assessed as dead parasitoid wasps compound treated for 1 hr measured after 8 hr wash-out period.
Series [2] can be described thus: Residual toxicity against compound treated rice leaves-fed adult Anagrus nilaparvatae assessed as mortality measured on day 0 post insecticide treatment to plant. The settings on record: in vivo, oral.
Series [3] is described as follows: Acute oral toxicity against female adult Anagrus nilaparvatae in petridish under laboratory conditions assessed as mortality compound treated as emulsible concentrate with acetone and Triton X-100 measured after 1 to 8 hr. The settings on record: in vivo.
Series [4] in a line: Chronic toxicity against female adult Anagrus nilaparvatae in petridish under laboratory conditions assessed as reduction in fecundity compound treated as emulsible concentrate with acetone and […] relative to untreated control. Set-up: scale not given: the % may be the effect or the level left.
The nature of series [5]: Chronic toxicity against female adult Anagrus nilaparvatae in petridish under laboratory conditions assessed as reduction in longetivity compound treated as emulsible concentrate with acetone and Triton X-100 relative to untreated control. On the set-up: scale not given: the % may be the effect or the level left.
Series [6] in a line: Acute oral toxicity against female adult Anagrus nilaparvatae in petridish under laboratory conditions assessed as mortality compound treated as emulsible concentrate with acetone and Triton X-100 measured after 8 hr. The settings on record: in vivo.
Series [7] is described as follows: Residual toxicity against compound treated rice leaves-fed adult Anagrus nilaparvatae assessed as mortality measured on day 7 post insecticide treatment to plant. The settings on record: in vivo.
Series [8] in a line: Acute oral toxicity against female adult Anagrus nilaparvatae in petridish under laboratory conditions assessed as mortality compound treated as emulsible concentrate with acetone and Triton X-100 measured after 2 hr. The settings on record: in vivo.
Series [9] can be described thus: Acute oral toxicity against female adult Anagrus nilaparvatae in petridish under laboratory conditions assessed as mortality compound treated as emulsible concentrate with acetone and Triton X-100 measured after 4 hr. The settings on record: in vivo.

Regarding `CC[C@H](C)[C@H]1O[C@]2(C=C[C@@H]1C)C[C@@H]1C[C@@H](C/C=C(\C)[C@@H](O[C@H]3C[C@H](OC)[C@@H](O[C@H]4C[C@H](OC)[C@@H](O)[C@H](C)O4)[C@H](C)O3)[C@@H](C)/C=C/C=C3\CO[C@@H]4[C@H](O)C(C)=C[C@@H](C(=O)O1)[C@]34O)O2.CO[C@H]1C[C@H](O[C@H]2[C@H](C)O[C@@H](O[C@@H]3/C(C)=C/C[C@@H]4C[C@@H](C[C@]5(C=C[C@H](C)[C@@H](C(C)C)O5)O4)OC(=O)[C@@H]4C=C(C)[C@@H](O)[C@H]5OC/C(=C\C=C\[C@@H]3C)[C@]54O)C[C@@H]2OC)O[C@@H](C)[C@@H]1O` [ABAMECTIN], in series [1], the LC50 was found to be 8.499 mgAi/L.

As usually defined, the mortality is the share of the test organisms that died. `CC(C)N1C(=O)N(c2ccccc2)CS/C1=N\C(C)(C)C` [BUPROFEZIN]: in [1], the LC50 is > 1000 mgAi/L. For the same compound, the mortality at 0 day in [2] is 1.1%. For the same compound, the mortality in series [3] was 29.4%.

With `O=C(NC(=O)c1c(F)cccc1F)Nc1cc(Cl)c(Oc2ncc(C(F)(F)F)cc2Cl)c(Cl)c1` [CHLORFLUAZURON], the values for the Activity in [4] and in [5] were 49% and 29%, respectively. For the same compound, the LC50 in series [1] was > 1000 mgAi/L. Also, in series [3], the mortality was 4%.

`CCOP(=S)(OCC)Oc1nc(Cl)c(Cl)cc1Cl` [CHLORPYRIFOS]: in series [6], the mortality at 8 h was 100%. Besides, the LC50 in series [1] turned out to be 0.002 mgAi/L. For the same compound, in [7] (oral), the mortality at 7 day was < 10%.

Consider `COP(=O)(OC)OC=C(Cl)Cl` [DICHLORVOS], for which the mortality at 2 h in series [8] is 100%. Moreover, the mortality at 8 h in series [6] came to 100%. Moreover, the LC50 in series [1] is given as 15.946 mgAi/L.

As for `N#Cc1nn(-c2c(Cl)cc(C(F)(F)F)cc2Cl)c(N)c1[S+]([O-])C(F)(F)F` (configuration not stated) [FIPRONIL], the mortality at 8 h in series [6] was 100%. Further, the LC50 in [1] worked out at 0.18 mgAi/L. Besides, in [7] (oral), the mortality at 7 day turned out to be 50%.

Regarding `Cc1cc(C)cc(C(=O)N(NC(=O)c2ccc3c(c2C)OC(C)C3)C(C)(C)C)c1` (configuration not stated) [FUXIAN], the Activity is on record as 47% in [4] and 29% in [5]. Besides, in [1], the LC50 was > 1000 mgAi/L. Besides, the mortality in [3] came to 1.1%.

Consider `O=C(NC(=O)c1c(F)cccc1F)Nc1cc(Cl)c(OC(F)(F)C(F)F)c(Cl)c1` [HEXAFLUMURON], for which the Activity is on record as 28% in series [4] and 24% in series [5]. Further, the LC50 in series [1] was > 1000 mgAi/L. Further, the mortality in series [3] turned out to be 1.3%.

Regarding `O=[N+]([O-])NC1=NCCN1Cc1ccc(Cl)nc1` [IMIDACLOPRID], in series [9], the Activity result is recorded as “Toxic”. Besides, the LC50 in series [1] turned out to be 0.021 mgAi/L. Also, in [7] (oral), the mortality at 7 day was determined as 80.7%. Besides, the mortality at 0 day in series [2] was determined as 97.6%.

Take `CNC(=O)Oc1ccccc1C(C)C` [ISOPROCARB]: the Activity result in series [9] was “Toxic”. The LC50 in [1] was found to be 1.071 mgAi/L.

As to `COP(N)(=O)SC` (configuration not stated) [METHAMIDOPHOS], the mortality at 8 h in series [6] came out at 100%. Moreover, the mortality at 7 day in series [7] (oral) was < 10%.

On to `CCOc1ccc([Si](C)(C)CCCc2ccc(F)c(Oc3ccccc3)c2)cc1` [SILAFLUOFEN], for which the mortality at 8 h in [6] is 37.6%. The LC50 in [1] is recorded as 14.22 mgAi/L. Further, in series [7] (oral), the mortality at 7 day turned out to be 1.1%.

As for `CN1COCN(Cc2cnc(Cl)s2)/C1=N\[N+](=O)[O-]` [THIAMETHOXAM], the Activity result in series [9] was “Toxic”. Besides, the LC50 in [1] was determined as 0.52 mgAi/L. For the same compound, the mortality at 7 day in series [7] (oral) is 66.8%.

`CCOP(=S)(OCC)Oc1ncn(-c2ccccc2)n1` [TRIAZOPHOS]: the mortality at 8 h in series [6] came out at 100%. Moreover, in [1], the LC50 came to 1.253 mgAi/L. For the same compound, the mortality at 7 day in series [7] was found to be 54.6%.
